Values of other authors as cited in US12187997B2, “Integrated human organ-on-chip microphysiological systems” (President and Fellows of Harvard College, priority 2011, dated 2025).
Entries after “also recorded” stand apart in the source; their conditions may differ.

Tests used:
[1] = for Organ Toxicity: Table 1
[2] = for Clearence Mechanism (for PK): Table 1
[3] = relieving dyspnea in heart failure patients

| Compound | Clearence Mechanism (for PK) [2] | toxicity in humans / in vivo [1] | Organ Toxicity [1] | metabolism and elimination [2] | clinical efficacy [3] |
| --- | --- | --- | --- | --- | --- |
| Cc1nnc(SCC2=C(C(=O)O)N3C(=O)[C@@H](NC(=O)Cn4cnnn4)[C@H]3SC2)s1 [Cefazolin] |  | produces pulmonary blood clots and nephrotoxicity | Lung, Kidney |  |  |
| COCc1c(C(C)C)nc(C(C)C)c(/C=C/[C@@H](O)C[C@@H](O)CC(=O)O)c1-c1ccc(F)cc1 [Cerivastatin] | Liver | major toxicities in vivo (rhabdylomysis) and liver toxicity | Skeletal; also recorded: muscle,; also recorded: Kidney, Liver |  |  |
| N.N.[Cl][Pt][Cl] [Cisplatin] | Renal |  |  |  |  |
| Nc1ccn([C@H]2C[C@H](O)[C@@H](COP(=O)(O)OP(=O)(O)OP(=O)(O)OP(=O)(O)OC[C@H]3O[C@@H](n4ccc(=O)[nH]c4=O)[C@H](O)[C@@H]3O)O2)c(=O)n1 [Denufosol] | Aerosol |  |  |  |  |
| CC(C)NCC(O)c1ccc(O)c(O)c1 (centres unmarked) [Isoproterenol] | Renal |  | Heart | primarily metabolized and excreted by the kidney in humans |  |
| CC(=O)N1CCN(c2ccc(OCC3COC(Cn4ccnc4)(c4ccc(Cl)cc4Cl)O3)cc2)CC1 (centres unmarked) [Ketoconazole] | Liver |  | Liver DDI, tests |  |  |
| CCOC(=O)C1=C[C@@H](OC(CC)CC)[C@H](NC(C)=O)[C@@H](N)C1 [Tamiflu] | Liver; Renal |  | children <1 yr |  |  |
| CC(C)(C)c1ccc(C(O)CCCN2CCC(C(O)(c3ccccc3)c3ccccc3)CC2)cc1 (centres unmarked) [Terfenadine] |  | cardiotoxic at higher doses in humans | Heart; also recorded: arrhythmia |  |  |
| Nesiritide | Proteolysis,; also recorded: Renal |  |  | primarily eliminated by the kidney | failed a large clinical trial for efficacy |

More lines, main results first:

| Clearence Mechanism (for PK) [2] | Compound | toxicity in humans / in vivo [1] | Organ Toxicity [1] | metabolism and elimination [2] | clinical efficacy [3] |
| --- | --- | --- | --- | --- | --- |
| Liver, Renal | COc1cccc2c1C(=O)c1c(O)c3c(c(O)c1C2=O)C[C@@](O)(C(=O)CO)C[C@@H]3O[C@H]1C[C@H](N)[C@H](O)[C@H](C)O1 [Doxorubicin] |  | Heart, gut, and bone marrow, and skin |  |  |
| (Crosses BBB) | Cc1ccc2c(c1)c1c(n2CCc2ccc(C)nc2)CCN(C)C1 [Latrepirdine] |  |  |  |  |
| Liver | Cc1c(C)c2c(c(C)c1O)CCC(C)(COc1ccc(CC3SC(=O)NC3=O)cc1)O2 (centres unmarked) [Troglitazone] |  | Liver |  |  |
| Liver | COc1ccc(C(=O)N2CCN(c3ccc4c(c3)CCC(=O)N4)CC2)cc1OC [Vesnarinone] |  | Heart |  |  |
